From ChEMBL document CHEMBL5523739, “NN1213 - A Potent, Long-Acting, and Selective Analog of Human Amylin” (J Med Chem, 2024)
pEC50, pIC50: −log10 of the molar value. Converted amounts (≈) assume the structure as drawn. Bridge positions count the residues as written; N and C are the ends. Peptide text beside a SMILES is read from it.

Tests used:
Rattus norvegicus = organism: Rattus norvegicus; test: Selectivity ratio of EC50 for rat CTR expressed in Baby hamster kidney cells to EC50 for rat AMY3R complex of CTR/RAMP3 expressed in Baby hamster kidney cells; type: cell-based
[1] = target: T1, Amylin receptor AMY3; CALCR/RAMP3 (Homo sapiens, UniProt O60896+P30988); test: Agonist activity at human AMY3R complex of CTR/RAMP3 expressed in Baby hamster kidney cells incubated for 3 hrs followed by medium replacement without compound measured after 30 mins by luciferase reporter assay; type: functional, cell-based, Baby hamster kidney cell
T1 sequence (P30988 whole entry): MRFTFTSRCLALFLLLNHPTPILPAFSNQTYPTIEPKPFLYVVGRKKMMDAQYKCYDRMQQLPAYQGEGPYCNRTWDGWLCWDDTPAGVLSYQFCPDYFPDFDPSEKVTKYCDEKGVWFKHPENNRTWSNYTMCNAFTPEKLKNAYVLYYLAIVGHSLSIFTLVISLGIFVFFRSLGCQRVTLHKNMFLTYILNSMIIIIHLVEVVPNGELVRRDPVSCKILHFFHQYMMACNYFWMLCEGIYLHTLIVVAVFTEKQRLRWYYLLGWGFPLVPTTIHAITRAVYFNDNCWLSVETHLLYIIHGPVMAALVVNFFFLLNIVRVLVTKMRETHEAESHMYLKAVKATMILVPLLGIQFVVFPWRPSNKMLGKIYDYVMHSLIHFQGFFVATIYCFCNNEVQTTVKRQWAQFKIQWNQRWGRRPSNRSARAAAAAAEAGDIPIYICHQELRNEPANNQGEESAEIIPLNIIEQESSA
T1 sequence (O60896 whole entry): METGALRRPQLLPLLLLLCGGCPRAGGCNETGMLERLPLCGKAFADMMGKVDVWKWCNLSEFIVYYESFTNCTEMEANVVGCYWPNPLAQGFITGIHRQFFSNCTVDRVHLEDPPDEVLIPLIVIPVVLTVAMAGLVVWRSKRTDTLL

[2] = Solubility of compound at pH 5 incubated overnight by UPLC analysis; type: physicochemical; conditions: buffer
Calcitonin receptor [3] = target: T2, Calcitonin receptor (Rattus norvegicus, UniProt P32214); test: Agonist activity at rat CTR expressed in Baby hamster kidney cells incubated for 3 hrs by cAMP assay; type: functional, cell-based, Baby hamster kidney cell
T2 sequence (P32214 whole entry): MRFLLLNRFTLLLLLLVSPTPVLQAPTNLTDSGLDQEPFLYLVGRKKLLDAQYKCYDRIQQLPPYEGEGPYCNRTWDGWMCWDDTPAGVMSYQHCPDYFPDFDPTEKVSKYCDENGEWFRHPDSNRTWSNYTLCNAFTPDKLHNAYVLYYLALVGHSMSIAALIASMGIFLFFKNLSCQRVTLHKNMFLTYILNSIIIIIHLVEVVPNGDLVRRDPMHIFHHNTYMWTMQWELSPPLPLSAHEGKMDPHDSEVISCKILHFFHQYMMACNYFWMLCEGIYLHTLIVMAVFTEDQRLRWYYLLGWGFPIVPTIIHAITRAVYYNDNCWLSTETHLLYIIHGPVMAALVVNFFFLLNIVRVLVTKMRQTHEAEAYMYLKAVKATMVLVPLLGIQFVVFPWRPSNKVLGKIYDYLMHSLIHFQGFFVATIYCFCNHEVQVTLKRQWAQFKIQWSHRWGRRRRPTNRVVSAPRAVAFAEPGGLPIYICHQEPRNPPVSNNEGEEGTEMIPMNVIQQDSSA

[4] = Stability against amyloid fibril formation at pH 7.5 assessed as lag time at 1 uM measured after 45 hrs by ThT assay; type: physicochemical; conditions: pH 7.5, 45 h
Homo sapiens = organism: Homo sapiens; test: Selectivity ratio of EC50 for human CTR expressed in Baby hamster kidney cells to EC50 for human AMY3R complex of CTR/RAMP3 expressed in Baby hamster kidney cells; type: cell-based
Calcitonin receptor [5] = target: T3, Calcitonin receptor (Homo sapiens, UniProt P30988); test: Agonist activity at human CTR expressed in Baby hamster kidney cells incubated for 3 hrs followed by medium replacement without compound measured after 30 mins by luciferase reporter assay; type: functional, cell-based, Baby hamster kidney cell
T3 sequence (P30988 whole entry): T1 sequence (P30988 whole entry)

[6] = target: T4, Amylin receptor AMY3; CALCR/RAMP3 (Rattus norvegicus, UniProt P32214+Q9JJ73); test: Agonist activity at rat AMY3R complex of CTR/RAMP3 expressed in Baby hamster kidney cells incubated for 3 hrs by cAMP assay; type: functional, cell-based, Baby hamster kidney cell
T4 sequence (P32214 whole entry): T2 sequence (P32214 whole entry)
T4 sequence (Q9JJ73 whole entry): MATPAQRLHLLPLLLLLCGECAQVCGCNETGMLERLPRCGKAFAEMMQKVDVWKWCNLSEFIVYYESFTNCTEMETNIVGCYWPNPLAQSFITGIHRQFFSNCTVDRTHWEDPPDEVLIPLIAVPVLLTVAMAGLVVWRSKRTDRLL

[7] = Solubility of compound at pH 7 incubated overnight by UPLC analysis; type: physicochemical; conditions: buffer
[8] = Stability against amyloid fibril formation at pH 7.5 assessed as compound recovery at 1 uM measured after 45 hrs by ThT assay; type: physicochemical; conditions: pH 7.5, 45 h
[9] = Solubility of compound at pH 3 incubated overnight by UPLC analysis; type: physicochemical; conditions: buffer
[10] = Solubility of compound at pH 8 incubated overnight by UPLC analysis; type: physicochemical; conditions: buffer
[11] = Solubility of compound at pH 4 incubated overnight by UPLC analysis; type: physicochemical; conditions: buffer
[12] = Solubility of compound at pH 6.5 incubated overnight by UPLC analysis; type: physicochemical; conditions: buffer
[13] = Solubility of compound at pH 6 incubated overnight by UPLC analysis; type: physicochemical; conditions: buffer
[14] = Solubility of compound at pH 7.5 incubated overnight by UPLC analysis; type: physicochemical; conditions: buffer
Calcitonin receptor [15] = target: T3, Calcitonin receptor; test: Displacement of 125I-Calcitonin from human CTR expressed in Baby hamster kidney cell membrane incubated for 120 mins by SPA method; type: cell membranes
Calcitonin receptor [16] = target: T2, Calcitonin receptor; test: Displacement of 125I-Calcitonin from rat CTR expressed in Baby hamster kidney cell membrane incubated for 120 mins by SPA method; type: cell membranes
[17] = target: T1, Amylin receptor AMY3; CALCR/RAMP3; test: Displacement of 125I-rat amylin from human AMY3R complex of CTR/RAMP3 expressed in Baby hamster kidney cell membrane incubated for 120 mins by SPA method; type: cell membranes
[18] = target: T4, Amylin receptor AMY3; CALCR/RAMP3; test: Displacement of 125I-rat amylin from rat AMY3R complex of CTR/RAMP3 expressed in Baby hamster kidney cell membrane incubated for 120 mins by SPA method; type: cell membranes

Compound	Ratio EC50 (Rattus norvegicus)	pEC50 [1]	solubility [2]	pEC50 (Calcitonin receptor [3])	Time [4]	Ratio EC50 (Homo sapiens)	pEC50 (Calcitonin receptor [5])	pEC50 [6]	solubility [7]	Drug recovery [8]	solubility [9]	solubility [10]	solubility [11]	solubility [12]	solubility [13]	solubility [14]	pIC50 (Calcitonin receptor [15])	pIC50 (Calcitonin receptor [16])	pIC50 [17]	pIC50 [18]
CC(C)C[C@H](NC(=O)[C@H](CCCNC(=N)N)NC(=O)[C@H](CCC(N)=O)NC(=O)[C@@H](NC(=O)[C@H](C)NC(=O)[C@@H]1CSSC[C@H](NC(=O)[C@@H](N)CCCCN)C(=O)N[C@@H](CC(N)=O)C(=O)N[C@@H]([C@@H](C)O)C(=O)N[C@@H](C)C(=O)N[C@@H]([C@@H](C)O)C(=O)N1)[C@@H](C)O)C(=O)N[C@@H](C)C(=O)N[C@@H](CC(=O)O)C(=O)N[C@@H](Cc1ccccc1)C(=O)N[C@@H](CC(C)C)C(=O)N[C@@H](CCCNC(=N)N)C(=O)N[C@@H](Cc1c[nH]cn1)C(=O)N[C@@H](CO)C(=O)N[C@@H](CO)C(=O)N[C@@H](CCC(N)=O)C(=O)N[C@@H](CC(N)=O)C(=O)N[C@@H](Cc1ccccc1)C(=O)NCC(=O)N[C@@H](C)C(=O)N1CCC[C@H]1C(=O)N[C@@H](CC(C)C)C(=O)N[C@@H](CO)C(=O)N[C@@H](CO)C(=O)N[C@H](C(=O)N1CCC[C@H]1C(=O)N[C@H](C(=O)NCC(=O)N[C@@H](CO)C(=O)N[C@@H](CC(=O)O)C(=O)N[C@H](C(=O)N[C@@H](Cc1ccc(O)cc1)C(N)=O)[C@@H](C)O)C(C)C)[C@@H](C)O (H-KCNTATCATQRLADFLRHSSQNFGAPLSSTPVGSDTY-NH2; disulfide 2-7)	31	9.74	≥ 200 µM	7.84	> 45 h	3.9	9.16	9.33	≥ 200 µM	100%	≥ 200 µM	≥ 200 µM	≥ 200 µM	≥ 200 µM	≥ 200 µM	≥ 200 µM	–	–	–	–
CC(C)C[C@H](NC(=O)[C@H](CCCNC(=N)N)NC(=O)[C@H](CCC(N)=O)NC(=O)[C@@H](NC(=O)[C@H](C)NC(=O)[C@@H]1CSSC[C@H](NC(=O)[C@@H](N)CCCCN)C(=O)N[C@@H](CC(N)=O)C(=O)N[C@@H]([C@@H](C)O)C(=O)N[C@@H](C)C(=O)N[C@@H]([C@@H](C)O)C(=O)N1)[C@@H](C)O)C(=O)N[C@@H](C)C(=O)N[C@@H](CC(=O)O)C(=O)N[C@@H](Cc1ccccc1)C(=O)N[C@@H](CC(C)C)C(=O)N[C@@H](CCCNC(=N)N)C(=O)N[C@@H](Cc1c[nH]cn1)C(=O)N[C@@H](CO)C(=O)N[C@@H](CO)C(=O)N[C@@H](CCC(N)=O)C(=O)N[C@@H](CC(N)=O)C(=O)N[C@@H](Cc1ccccc1)C(=O)NCC(=O)N[C@@H](C)C(=O)N1CCC[C@H]1C(=O)N[C@@H](CC(C)C)C(=O)N[C@@H](CO)C(=O)N[C@@H](CO)C(=O)N[C@H](C(=O)N[C@@H](CC(N)=O)C(=O)N[C@H](C(=O)NCC(=O)N[C@@H](CO)C(=O)N1CCC[C@H]1C(=O)N[C@H](C(=O)N[C@@H](Cc1ccc(O)cc1)C(N)=O)[C@@H](C)O)C(C)C)[C@@H](C)O (H-KCNTATCATQRLADFLRHSSQNFGAPLSSTNVGSPTY-NH2; disulfide 2-7)	–	8.81	≥ 200 µM	–	0 h	0.9	8.86	–	7 µM (≈ 27.6 µg/mL)	0%	≥ 200 µM	15 µM (≈ 59.1 µg/mL)	≥ 200 µM	75 µM (≈ 296 µg/mL)	≥ 200 µM	7 µM (≈ 27.6 µg/mL)	–	–	–	–
CC[C@H](C)[C@H](NC(=O)[C@H](C)NC(=O)CNC(=O)[C@H](Cc1ccccc1)NC(=O)[C@H](CC(N)=O)NC(=O)[C@@H]1CCCN1C(=O)[C@H](CO)NC(=O)[C@H](CO)NC(=O)[C@H](Cc1c[nH]cn1)NC(=O)[C@H](CCCNC(=N)N)NC(=O)[C@H](CC(C)C)NC(=O)[C@H](Cc1ccccc1)NC(=O)[C@H](CC(=O)O)NC(=O)[C@H](C)NC(=O)[C@H](CC(C)C)NC(=O)[C@H](CCCNC(=N)N)NC(=O)[C@H](CCC(N)=O)NC(=O)[C@@H](NC(=O)[C@H](C)NC(=O)[C@@H]1CSSC[C@H](NC(=O)[C@@H](N)CCCCN)C(=O)N[C@@H](CC(N)=O)C(=O)N[C@@H]([C@@H](C)O)C(=O)N[C@@H](C)C(=O)N[C@@H]([C@@H](C)O)C(=O)N1)[C@@H](C)O)C(=O)N1CCC[C@H]1C(=O)N[C@@H](CO)C(=O)N[C@@H](CO)C(=O)N[C@H](C(=O)N[C@@H](CC(N)=O)C(=O)N[C@H](C(=O)NCC(=O)N[C@@H](CO)C(=O)N[C@@H](CC(=O)O)C(=O)N[C@H](C(=O)N[C@@H](Cc1ccc(O)cc1)C(N)=O)[C@@H](C)O)C(C)C)[C@@H](C)O	–	9.79	≥ 200 µM	6.07	> 45 h	–	8.61	9.19	≥ 200 µM	100%	≥ 200 µM	≥ 200 µM	≥ 200 µM	190 µM (≈ 747 µg/mL)	≥ 200 µM	≥ 200 µM	7.71	7.01	9.45	9.66
